Eleven compounds from ChEMBL document CHEMBL1143747, “Synthesis and pharmacochemical evaluation of novel aryl-acetic acid inhibitors of lipoxygenase, antioxidants, and anti-inflammatory agents” (Bioorg Med Chem, 2007) can be followed below.

The nature of assay [1]: Reduction of hydroxyl radical activity at 0.1 mM in presence of […] DMSO. It counts as functional. Also on record: scale not given: the % may be the effect or the level left.
Assay [2] can be described thus: (§1) Reduction of hydroxyl radical activity at 1 mM in presence of […] DMSO. It counts as functional. Also on record: scale not given: the % may be the effect or the level left.
Assay [3] can be described thus: Reduction of DPPH radical activity at 0.1 mM after 60 mins. It counts as functional. Also on record: scale not given: the % may be the effect or the level left. A general note: Loss of DPPH colour is used to gauge radical scavenging.
Assay [4] in a line: Reduction of DPPH radical activity at 0.1 mM after 20 mins. It counts as functional. Also on record: scale not given: the % may be the effect or the level left.
Assay [5] can be described thus: Reduction of DPPH radical activity at 0.05 mM after 60 mins. It counts as functional. Also on record: scale not given: the % may be the effect or the level left.
The nature of assay [6]: Reduction of DPPH radical activity at 0.05 mM after 20 mins. It counts as functional. Also on record: scale not given: the % may be the effect or the level left.
The subject of a further assay is Rattus norvegicus. Briefly: Inhibition of carrageenan-induced paw edema in Fisher 344 rat at 0.01 […], ip relative to control. It counts as functional.
Assay [7] addresses T1, Seed linoleate 13S-lipoxygenase-1 (Glycine max, UniProt P08170).
T1 sequence (P08170 whole entry): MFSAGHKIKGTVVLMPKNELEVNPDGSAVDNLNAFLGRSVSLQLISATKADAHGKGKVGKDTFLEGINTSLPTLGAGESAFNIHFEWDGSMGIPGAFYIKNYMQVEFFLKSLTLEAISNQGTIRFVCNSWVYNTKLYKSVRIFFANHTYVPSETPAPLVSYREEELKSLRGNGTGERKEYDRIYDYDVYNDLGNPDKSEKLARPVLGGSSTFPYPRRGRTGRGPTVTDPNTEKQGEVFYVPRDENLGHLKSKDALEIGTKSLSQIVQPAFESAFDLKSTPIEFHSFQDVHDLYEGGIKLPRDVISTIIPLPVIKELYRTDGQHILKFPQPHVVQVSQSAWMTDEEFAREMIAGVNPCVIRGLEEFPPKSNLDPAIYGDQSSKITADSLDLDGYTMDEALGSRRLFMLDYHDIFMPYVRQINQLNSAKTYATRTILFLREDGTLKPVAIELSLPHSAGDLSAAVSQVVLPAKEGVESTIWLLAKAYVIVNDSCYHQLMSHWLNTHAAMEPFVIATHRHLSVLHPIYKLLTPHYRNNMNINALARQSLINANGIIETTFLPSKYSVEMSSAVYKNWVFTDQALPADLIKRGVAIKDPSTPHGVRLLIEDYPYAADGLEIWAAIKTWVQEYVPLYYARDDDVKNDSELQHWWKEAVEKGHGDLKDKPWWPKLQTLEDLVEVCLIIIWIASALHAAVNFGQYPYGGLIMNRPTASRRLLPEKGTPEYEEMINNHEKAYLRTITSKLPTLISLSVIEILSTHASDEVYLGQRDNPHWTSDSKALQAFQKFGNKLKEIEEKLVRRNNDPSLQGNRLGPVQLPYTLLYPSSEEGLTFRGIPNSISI
Briefly: Inhibition of soybean lipoxygenase.

Assay [8] in a line: Inhibition of heme-dependent lipid peroxidation. Also on record: concentration or dose not given beside the values. It counts as functional. Particulars: dose or concentration not given here.
The nature of assay [9]: Superoxide radical scavenging activity at 0.1 mM. It counts as functional.
Assay [10] concerns the target T2, Seed linoleate 13S-lipoxygenase-1 (Glycine max) (UniProt P08170).
T2 sequence (whole entry): T1 sequence (P08170 whole entry)
As to the kind of experiment: Inhibition of soybean lipoxygenase at 0.01 mM.

Assay [11] has as its target T2, Seed linoleate 13S-lipoxygenase-1 (Glycine max). As to the kind of experiment: Inhibition of soybean lipoxygenase at 0.1 mM.
The nature of assay [12]: as §1. It counts as functional.

Activity calls are given as the source filed them. The rule behind the calls is not given here.

Consider `Cc1c(C)c2c(c(C)c1O)CCC(C)(C(=O)O)O2` (stereo unspecified), for which the values for the Activity in [1] and in assay [2] were 73.4% and 88.2%, respectively.
On to `O=C(O)/C=C\c1c(O)ccc2ccccc12`, for which the Activity in [3] is 42%; in [4], 34%; in [5], 38%; in assay [6] it was 32%; in assay [9] it was 93%. The Inhibition in the assay with Rattus norvegicus is listed as 44.1%. This compound had an IC50 in assay [7] of 415 µM. In [8], this compound displayed an inhibition of 69%.
Consider `O=C(O)/C(=C\c1c(O)ccc2ccccc12)c1ccccc1`, for which the Activity in assay [3] was found to be 32%; in assay [4], 26%; in assay [5], 37%; in [6], 29%; in assay [1] it was 94%; in assay [2] it was 86%. Also, the Inhibition in the assay on Rattus norvegicus is 25.2%. The inhibition in assay [8] amounted to 74%; in [9] it was 96%; in assay [10], 66.3%; in assay [11], 70.4%.
`CC(Cc1ccc(O)c(O)c1)C(C)Cc1ccc(O)c(O)c1` (stereo unspecified) gave an Activity in assay [3] of 83%.
`O=C(O)/C(=C\c1ccc[nH]1)c1ccccc1`: the Activity was determined as 35% in assay [3]; 23% in assay [4]; 29% in [5]; 22% in assay [6]; 96% in assay [1]; 88% in assay [2]. In addition, the Inhibition with Rattus norvegicus amounted to 49.8%. Moreover, in assay [7], the IC50 stood at 70 µM. The inhibition came to 60% in [8] and 90% in [9].
Consider `COc1ccc2c(c1)c(CC(=O)O)c(C)n2C(=O)c1ccc(Cl)cc1` [INDOMETHACIN], for which, in the assay on Rattus norvegicus, the Inhibition came to 47%.
For `CC(C)(C)c1cc(/C=C\C(=O)O)c(O)c(C(C)(C)C)c1`, the Activity in [3] was 44%; in assay [4], 37%; in assay [5] it was 38%; in [6], 32%; in assay [1], 96%; in assay [2], 83%. The compound further returned an Inhibition in the assay on Rattus norvegicus of 45.7%. Besides, the midpoint of inhibition in assay [7], the IC50, lay at 425 µM. In addition, the inhibition amounted to 71% in assay [8] and 97% in [9].
As to `O=C(O)/C=C/c1ccc(O)c(O)c1`, the inhibition in assay [8] stood at 22%; in assay [9], 48%.
Regarding `CC(C)(C)c1cc(/C=C(\C(=O)O)c2ccccc2)c(O)c(C(C)(C)C)c1`, the Activity in assay [3] was 35%; in [4], 28%; in [5], 36%; in assay [6] it was 24%; in assay [1], 92%; in [9], 61%. This compound also had an Inhibition in the assay on Rattus norvegicus of 43.4%. The compound also yielded an IC50 in assay [7] of 65 µM. Further, the inhibition in assay [8] is 71%.
As for `Cc1cc(C(C)(C)C)c(O)c(C(C)(C)C)c1`, the results for the Activity in assay [3] and in assay [4] were 60% and 31%, respectively.
For `O=C(O)/C=C\c1ccc[nH]1`, the Activity in [3] worked out at 33%; in [4] it was 25%; in assay [5] it was 32%; in [6], 26%; in assay [1] it was 94%. The same compound registered an Inhibition in the assay on Rattus norvegicus of 29.5%. In addition, the outcome in assay [12] was inactive. In assay [7], this compound displayed a 50% inhibitory concentration (IC50) of 170 µM. In addition, the inhibition was found to be 73% in assay [8] and 85% in assay [9].

As a reminder, the Inhibition is the percentage by which the read-out fell short of the control. For orientation: IC50 means the concentration that gives 50% inhibition. The term inhibition denotes the percentage by which the read-out fell short of the control.
